Experimental data taken from patent US7033829B2, “Method to inhibit cell growth using oligonucleotides” (Trustees of Boston University, priority 2000, dated 2006).
Oligonucleotides are written 5' to 3', each unit as a sugar letter and its base; * is a phosphorothioate linkage, no mark a phosphodiester; rarer units and linkages stand in square brackets, end groups in braces. Plain capitals give the bases only. d = 2'-deoxy (DNA); {P} = phosphate

Columns and labels:
p53, E2F1 = assay: Western analysis of p53 and E2F1 in Jurkat cells; type: cell-based, human; conditions: by 24 hours
Protocol: Oligonucleotides homologous to the telomere overhang repeat sequence (TTAGGG; SEQ ID NO:11), sequence (11mer-1: pGTTAGGGTTAG; SEQ ID NO: 5), complementary to this sequence (11mer-2: pCTAACCCTAAC; SEQ ID NO: 9) and unrelated to the telomere sequence (11mer-3: pGATCGATCGAT; SEQ ID NO: 10) were added to cultures of Jurkat cells, a line of human T cells, one of the cell types reported to undergo apoptosis in response to telomere disruption. Within 48 hours, 50% of the cells treated with 40 μM of SEQ ID NO: 5 had accumulated in the S phase, compared to 25–30% for control cells (p<0.0003, non-paired t-test; see FIGS. 19A–19D), and by 72 hours, 13% of these cells were apoptotic as determined by a sub-G0/G1 DNA content, compared to 2–3% of controls (p<0.007, non-paired t-test; see FIGS. 19E–19H). At 96 hours, 20±3% of the 11mer-1 treated cells were apoptotic compared with 3–5% of controls (p<0.0001, non-paired t-test). […] The fluorescence intensity of the cells was the same after all treatments at 4 hours and 24 hours.
Cells were plated at a density of 180,000 cells/ml in RPMI 1640 medium supplemented with 3% FBS. […] TUNEL-positive cells were detected by FACS analysis and confocal microscopy. […] Uptake of the oligonucleotides was assessed in 5–10 μm sections with a Carl Zeiss LSM 510 confocal laser microscope. […] Fluorescence was measured on the FL-1 channel. […]

[1] = system: p53-null osteosarcoma cell line (Saos-2); assay: FACS cell cycle analysis of Saos-2 cells; type: cell-based, human; conditions: 40 μM; 48 hours
Text: In order to determine whether these oligonucleotides similarly affect other human cell types and to investigate the role of p53, we treated a squamous cell carcinoma line (SCC12F) (Rheinwald, J. G., et al., 1983, Human carcinogenesis. pp. 86–96. Academic Press (New York)) that over-expresses a presumptively mutated p53 (Eller, M. S. and B. A. Gilchrest. 2000, Pigment Cell Res. 13: 94–97) and a p53-null osteosarcoma cell line (Saos-2) (Wang, L. H., et al., 1998, Anticancer Res 18: 321–325) with either diluent alone, 11mer-1, 11mer-2 or 11mer-3. Cultures were analyzed by FACS after 48 hours (FIGS. 33A–33H). […] Although the percentage of cells in the S-phase in 11mer-1-treated SCC12F and Saos-2 cells was virtually identical (53±6% and 52±1%, respectively), the G0/G1 and G2/M content of the two cell types were somewhat different. This may reflect differential uptake of the oligonucleotide leading to dose-dependent differences, and/or different pathways acting in these cells to control the cell cycle. No apoptotic response to the oligonucleotides was detected in either cell type within 72 hours.

[2] = system: Normal human neonatal keratinocyte cells; assay: Cell yield of normal keratinocytes; type: cell-based; conditions: 100 μM
Protocol: Normal human neonatal keratinocyte cells were cultured as described above in Example 1 for SCC12F cells, and treated with either 100 μM T2 or diluent as a control. Cells were harvested for cell counts. The cell yield in cultures treated with T2 was reduced by 63% compared to that of paired control cultures after three days (FIG. 5).

[3] = system: basal keratinocytes (epidermal cell proliferation); assay: Epidermal labeling index after topical application; type: in vivo, Guinea pigs; conditions: 100 μM topical, three days, mean ± SD
Protocol: Guinea pigs received one or two daily topical applications of 100 μM pTpT, or vehicle alone as control, for three days. On the fourth day, punch biopsies were obtained and maintained for 7 or 8 hours in primary keratinocyte medium supplemented with 10 μCi/ml ^3H-thymidine (specific activity 9.0 Ci/m mole, NEN). Proliferating cells are expected to incorporate the ^3H-thymidine into newly synthesized DNA. Tissues were then rinsed with cold medium and fixed in 10% phosphate buffered formalin. After a series of dehydration steps, tissues were embedded in paraffin. 6 μm sections were cut and mounted onto glass slides, dipped in NTB-2 Nuclear Track emulsion and kept in the dark at 4° C. for 7 days. Sections were developed in Kodak D-19 developer and stained with hematoxylin and eosin. Labeling index, a measure of DNA replication and therefore cell proliferation, was measured by calculating the percentage of labeled nuclei among 100 basal keratinocytes.

## pGTTAGGGTTAG (DNA {P}-dGdTdTdAdGdGdGdTdTdAdG) [SEQ ID NO: 5]
p53, E2F1
  E2F1 level: concomitant increase in the level of the E2F1 transcription factor
  p53 level: an increase in p53
[1]
  cells in the S-phase: 52±1%

## thymidine dinucleotide [pTpT]
[2]; after three days
  cell yield reduced compared to paired control cultures: 63%
[2]; three days (control: one population doubling)
  number of cells: remained the same
[3]; 1 daily application
  Labeling Index (percentage of labeled nuclei among 100 basal keratinocytes): 2 ± 0
[3]; 2 daily applications
  Labeling Index (percentage of labeled nuclei among 100 basal keratinocytes): 1.5 ± 0.7
